Results published in PMC8037182, “Solvothermal Synthesis of Multiple Dihydropyrimidinones at a Time as Inhibitors of Eg5” (Molecules, 2021).

Key:
[1] = system: L929 cell line; assay: Cytotoxicity MTS assay, L929 cell line; format: cell-based; details: for OD490 values, Mean / OD490 values, Well 1 / OD490 values, Well 2 / OD490 values, Well 3: L929 cell line, first assay
Outline: (§1)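 Cells seeded at 1000 per well, grown 24 h, then exposed to compound (0.5–100 µM final) for 24 h with 0.025% DMSO blank. MTS reagent added for 2 h at 37 °C, absorbance read at 490 nm; IC50 from non-linear regression of % viability versus concentration, three independent duplicate experiments.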

[2] = system: Hela cell line; assay: Cytotoxicity MTS assay, Hela cell line; format: cell-based; details: for OD490 value, Mean / OD490 value, Well 1 / OD490 value, Well 2 / OD490 value, Well 3: Hela cell line, MTS;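 on OD490 value, Mean: blank control wells received 0.025% DMSO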;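 on OD490 value, Well 1: blank control wells received 0.025% DMSO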;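 on OD490 value, Well 2: blank control wells received 0.025% DMSO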;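 on OD490 value, Well 3: blank control wells received 0.025% DMSO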
Outline: as §1

CCOC(=O)c1c(C2NC(=O)NC(C)=C2C(=O)Nc2ccccc2)[nH]c(C(=O)OC)c1C (centres unmarked) [D10]
OD490 values, Mean ([1]; 0.5μM): 1.1783
OD490 values, Well 1 ([1]; 0.5μM): 1.1608
OD490 values, Well 2 ([1]; 0.5μM): 1.2289
OD490 values, Well 3 ([1]; 0.5μM): 1.1452
OD490 values, Mean ([1]; 1μM): 1.1453
OD490 values, Well 1 ([1]; 1μM): 1.2474
OD490 values, Well 2 ([1]; 1μM): 1.0902
OD490 values, Well 3 ([1]; 1μM): 1.0983
OD490 values, Mean ([1]; 10μM): 1.1621
OD490 values, Well 1 ([1]; 10μM): 1.1874
OD490 values, Well 2 ([1]; 10μM): 1.1922
OD490 values, Well 3 ([1]; 10μM): 1.1066
OD490 values, Mean ([1]; 25μM): 1.1923
OD490 values, Well 1 ([1]; 25μM): 1.1856
OD490 values, Well 2 ([1]; 25μM): 1.2091
OD490 values, Well 3 ([1]; 25μM): 1.1822
OD490 values, Mean ([1]; 50μM): 1.0704
OD490 values, Well 1 ([1]; 50μM): 0.9680
OD490 values, Well 2 ([1]; 50μM): 1.0467
OD490 values, Well 3 ([1]; 50μM): 1.1965
OD490 values, Mean ([1]; 100μM): 0.9201
OD490 values, Well 1 ([1]; 100μM): 0.8725
OD490 values, Well 2 ([1]; 100μM): 0.9125
OD490 values, Well 3 ([1]; 100μM): 0.9752
IC50 ([1]; MTS assay, 24 h exposure, ordinary fibroblast, not cancer cells): > 150 µM
OD490 value, Mean ([2]; 0.5μM, first assay): 2.4433
OD490 value, Well 1 ([2]; 0.5μM, first assay): 2.2781
OD490 value, Well 2 ([2]; 0.5μM, first assay): 2.4004
OD490 value, Well 3 ([2]; 0.5μM, first assay): 2.6514
OD490 value, Mean ([2]; 0.5μM, second assay): 2.6180
OD490 value, Well 1 ([2]; 0.5μM, second assay): 2.6587
OD490 value, Well 2 ([2]; 0.5μM, second assay): 2.4789
OD490 value, Well 3 ([2]; 0.5μM, second assay): 2.7165
OD490 value, Mean ([2]; 0.5μM, third assay): 2.7318
OD490 value, Well 1 ([2]; 0.5μM, third assay): 2.6365
OD490 value, Well 2 ([2]; 0.5μM, third assay): 2.6647
OD490 value, Well 3 ([2]; 0.5μM, third assay): 2.8942
OD490 value, Mean ([2]; 1μM, first assay): 2.5456
OD490 value, Well 1 ([2]; 1μM, first assay): 2.4058
OD490 value, Well 2 ([2]; 1μM, first assay): 2.5965
OD490 value, Well 3 ([2]; 1μM, first assay): 2.6345
OD490 value, Mean ([2]; 1μM, second assay): 2.6802
OD490 value, Well 1 ([2]; 1μM, second assay): 2.6241
OD490 value, Well 2 ([2]; 1μM, second assay): 2.8523
OD490 value, Well 3 ([2]; 1μM, second assay): 2.5641
OD490 value, Mean ([2]; 1μM, third assay): 2.6076
OD490 value, Well 1 ([2]; 1μM, third assay): 2.6360
OD490 value, Well 2 ([2]; 1μM, third assay): 2.5412
OD490 value, Well 3 ([2]; 1μM, third assay): 2.6456
OD490 value, Mean ([2]; 10μM, first assay): 2.4164
OD490 value, Well 1 ([2]; 10μM, first assay): 2.2701
OD490 value, Well 2 ([2]; 10μM, first assay): 2.4384
OD490 value, Well 3 ([2]; 10μM, first assay): 2.5408
OD490 value, Mean ([2]; 10μM, second assay): 2.3656
OD490 value, Well 1 ([2]; 10μM, second assay): 2.3071
OD490 value, Well 2 ([2]; 10μM, second assay): 2.3385
OD490 value, Well 3 ([2]; 10μM, second assay): 2.4512
OD490 value, Mean ([2]; 10μM, third assay): 2.4636
OD490 value, Well 1 ([2]; 10μM, third assay): 2.3685
OD490 value, Well 2 ([2]; 10μM, third assay): 2.4635
OD490 value, Well 3 ([2]; 10μM, third assay): 2.5587
OD490 value, Mean ([2]; 25μM, first assay): 2.2246
OD490 value, Well 1 ([2]; 25μM, first assay): 1.9325
OD490 value, Well 2 ([2]; 25μM, first assay): 2.3409
OD490 value, Well 3 ([2]; 25μM, first assay): 2.4004
OD490 value, Mean ([2]; 25μM, second assay): 2.1531
OD490 value, Well 1 ([2]; 25μM, second assay): 2.0147
OD490 value, Well 2 ([2]; 25μM, second assay): 2.2032
OD490 value, Well 3 ([2]; 25μM, second assay): 2.2414
OD490 value, Mean ([2]; 25μM, third assay): 2.1839
OD490 value, Well 1 ([2]; 25μM, third assay): 2.1010
OD490 value, Well 2 ([2]; 25μM, third assay): 2.1141
OD490 value, Well 3 ([2]; 25μM, third assay): 2.3365
OD490 value, Mean ([2]; 50μM, first assay): 1.8479
OD490 value, Well 1 ([2]; 50μM, first assay): 1.6416
OD490 value, Well 2 ([2]; 50μM, first assay): 1.7737
OD490 value, Well 3 ([2]; 50μM, first assay): 2.1285
OD490 value, Mean ([2]; 50μM, second assay): 1.7649
OD490 value, Well 1 ([2]; 50μM, second assay): 1.7425
OD490 value, Well 2 ([2]; 50μM, second assay): 1.7321
OD490 value, Well 3 ([2]; 50μM, second assay): 1.8201
OD490 value, Mean ([2]; 50μM, third assay): 1.8099
OD490 value, Well 1 ([2]; 50μM, third assay): 1.7845
OD490 value, Well 2 ([2]; 50μM, third assay): 1.8032
OD490 value, Well 3 ([2]; 50μM, third assay): 1.8420
OD490 value, Mean ([2]; 100μM, first assay): 1.6845
OD490 value, Well 1 ([2]; 100μM, first assay): 1.6759
OD490 value, Well 2 ([2]; 100μM, first assay): 1.7430
OD490 value, Well 3 ([2]; 100μM, first assay): 1.6346
OD490 value, Mean ([2]; 100μM, second assay): 1.6082
OD490 value, Well 1 ([2]; 100μM, second assay): 1.6324
OD490 value, Well 2 ([2]; 100μM, second assay): 1.5024
OD490 value, Well 3 ([2]; 100μM, second assay): 1.6898
OD490 value, Mean ([2]; 100μM, third assay): 1.7036
OD490 value, Well 1 ([2]; 100μM, third assay): 1.6578
OD490 value, Well 2 ([2]; 100μM, third assay): 1.6988
OD490 value, Well 3 ([2]; 100μM, third assay): 1.7542
IC50 ([2]; MTS assay, 24 h exposure): 108 µM
